From publication PMC3794980, “Identification of Conserved and HLA Promiscuous DENV3 T-Cell Epitopes” (PLoS Neglected Tropical Diseases, 2013)

How the values were obtained:
Assay in all cases: biochemical
Type in all cases: binding
[1] = target: DRB4*0101 (Homo sapiens, UniProt P01903+P13762, G164S)
[2] = target: DRB3*0101 (Homo sapiens, UniProt P01903+P79483)
[3] = target: DRB5*0101 (Homo sapiens, UniProt P01903+Q30154)

| Compound | IC50 [1] [µM] | IC50 [2] [µM] | IC50 [3] [µM] |
| --- | --- | --- | --- |
| CSCC[C@H](NC(=O)[C@@H](NC(=O)[C@@H](NC(=O)[C@@H](NC(=O)[C@H](CS)NC(=O)CNC(=O)CNC(=O)[C@H](Cc1c[nH]cn1)NC(=O)[C@H](CCC(=O)O)NC(=O)[C@H](CC(C)C)NC(=O)[C@@H](NC(=O)[C@@H](NC(=O)[C@H](CC(=O)O)NC(=O)[C@@H](N)C(C)C)C(C)C)C(C)C)C(C)C)[C@@H](C)O)[C@@H](C)O)C(=O)N[C@@H](C)C(=O)O [Envelope 21-35] | 4.5 |  |  |
| CSCC[C@H](NC(=O)CNC(=O)CNC(=O)[C@H](Cc1c[nH]cn1)NC(=O)[C@H](CCCCN)NC(=O)[C@H](CCCNC(=N)N)NC(=O)[C@H](CCC(N)=O)NC(=O)[C@H](CC(C)C)NC(=O)[C@H](CCCNC(=N)N)NC(=O)[C@H](CCC(=O)O)NC(=O)[C@@H](N)CC(C)C)C(=O)N[C@@H](CC(C)C)C(=O)N[C@H](C(=O)N[C@@H](CCCNC(=N)N)C(=O)N[C@@H](CC(N)=O)C(=O)N1CCC[C@H]1C(=O)N[C@@H](CC(C)C)C(=O)O)C(C)C [NS5 193-209] |  | 12 | 1.2 |
| CC[C@H](C)[C@H](NC(=O)CNC(=O)[C@H](CO)NC(=O)CNC(=O)[C@H](CS)NC(=O)[C@H](CCCCN)NC(=O)[C@H](CC(C)C)NC(=O)[C@H](CCC(=O)O)NC(=O)[C@H](CCCCN)NC(=O)CNC(=O)[C@H](CCCCN)NC(=O)[C@H](Cc1c[nH]c2ccccc12)NC(=O)[C@H](CC(N)=O)NC(=O)[C@@H](NC(=O)[C@@H](N)C(C)C)[C@@H](C)CC)C(=O)O [NS1 5-19] |  | 6.3 | 15.8 |
| CC(C)C[C@H](NC(=O)[C@H](CCCCN)NC(=O)[C@@H](NC(=O)[C@H](CCCCN)NC(=O)[C@H](CCC(N)=O)NC(=O)[C@H](Cc1ccc(O)cc1)NC(=O)[C@H](CCC(=O)O)NC(=O)[C@@H](N)[C@@H](C)O)[C@@H](C)O)C(=O)N[C@@H](CC(N)=O)C(=O)N[C@@H](CC(=O)O)C(=O)N[C@@H](Cc1c[nH]c2ccccc12)C(=O)N[C@@H](CC(=O)O)C(=O)N[C@@H](Cc1ccccc1)C(=O)N[C@H](C(=O)N[C@H](C(=O)O)C(C)C)C(C)C [NS3 393-407] |  | 3.7 | 15.9 |
| CC(C)C[C@H](NC(=O)CNC(=O)[C@H](CCC(=O)O)NC(=O)CNC(=O)[C@H](CCC(=O)O)NC(=O)[C@@H](NC(=O)CNC(=O)[C@H](CO)NC(=O)[C@H](Cc1ccc(O)cc1)NC(=O)[C@H](CO)NC(=O)[C@H](CC(N)=O)NC(=O)[C@H](CCC(=O)O)NC(=O)[C@H](CCCNC(=N)N)NC(=O)[C@H](CO)NC(=O)[C@H](Cc1ccccc1)NC(=O)[C@H](Cc1c[nH]c2ccccc12)NC(=O)[C@@H](N)Cc1c[nH]cn1)C(C)C)C(=O)O [NS5 495-511] |  | 1.16 | 0.723 |
| CC[C@H](C)[C@H](NC(=O)[C@H](CO)NC(=O)[C@@H]1CCCN1C(=O)[C@@H](NC(=O)[C@H](Cc1ccccc1)NC(=O)[C@H](Cc1c[nH]c2ccccc12)NC(=O)[C@@H](NC(=O)[C@@H](NC(=O)[C@H](CCCCN)NC(=O)CNC(=O)[C@H](C)NC(=O)[C@H](Cc1ccccc1)NC(=O)[C@H](CC(=O)O)NC(=O)[C@@H](N)[C@@H](C)O)[C@@H](C)O)C(C)C)C(C)C)C(=O)N[C@@H](CCCCN)C(=O)O [NS3 353-367] |  | 15.7 | 1.22 |
| CC[C@H](C)[C@H](NC(=O)[C@@H](NC(=O)[C@@H]1CCCN1C(=O)[C@@H](N)CO)[C@@H](C)CC)C(=O)N[C@@H](CC(N)=O)C(=O)N[C@@H](CCCNC(=N)N)C(=O)N[C@@H](CCC(=O)O)C(=O)NCC(=O)N[C@@H](CCCCN)C(=O)N[C@H](C(=O)N[C@H](C(=O)NCC(=O)N[C@@H](CC(C)C)C(=O)N[C@@H](Cc1ccc(O)cc1)C(=O)NCC(=O)O)C(C)C)C(C)C [NS3 137-151] |  | 9.58 | 1.68 |
| CC(C)[C@H](NC(=O)[C@H](CCC(=O)O)NC(=O)[C@H](Cc1ccc(O)cc1)NC(=O)[C@H](CO)NC(=O)CNC(=O)[C@H](Cc1c[nH]cn1)NC(=O)[C@H](Cc1ccc(O)cc1)NC(=O)[C@H](C)NC(=O)[C@H](Cc1c[nH]c2ccccc12)NC(=O)[C@@H](NC(=O)[C@H](CCCCN)NC(=O)[C@H](Cc1ccc(O)cc1)NC(=O)[C@@H]1CCCN1C(=O)[C@H](CC(N)=O)NC(=O)[C@H](CCC(=O)O)NC(=O)[C@@H](N)CC(=O)O)[C@@H](C)O)C(=O)N[C@@H](CCCCN)C(=O)O [NS5 295-311] |  | 0.98 | 5.29 |
| CC[C@H](C)[C@H](N)C(=O)N[C@@H](Cc1ccccc1)C(=O)N[C@@H](CCSC)C(=O)N[C@H](C(=O)N[C@@H](C)C(=O)N[C@H](C(=O)N1CCC[C@H]1C(=O)N1CCC[C@H]1C(=O)NCC(=O)N[C@H](C(=O)N[C@@H](C)C(=O)N[C@@H](CC(=O)O)C(=O)N[C@@H](C)C(=O)N[C@@H](Cc1ccccc1)C(=O)N1CCC[C@H]1C(=O)O)[C@@H](C)O)[C@@H](C)O)[C@@H](C)O [NS3 313-327] |  | 9.44 | 13.9 |
| CSCC[C@H](NC(=O)[C@@H](NC(=O)[C@H](CCC(N)=O)NC(=O)[C@H](Cc1ccccc1)NC(=O)[C@H](CC(N)=O)NC(=O)[C@H](CCCCN)NC(=O)[C@@H]1CCCN1C(=O)[C@H](CC(N)=O)NC(=O)[C@H](CCCCN)NC(=O)CNC(=O)[C@@H]1CCCN1C(=O)[C@@H](N)CCC(=O)O)[C@@H](C)O)C(=O)N1CCC[C@H]1C(=O)NCC(=O)N[C@H](C(=O)O)[C@@H](C)O [NS3 101-115] |  | 4.12 | 1.08 |
| CC(C)C[C@H](NC(=O)[C@H](CCCNC(=N)N)NC(=O)[C@H](CCCCN)NC(=O)CNC(=O)[C@H](CC(N)=O)NC(=O)[C@H](Cc1ccc(O)cc1)NC(=O)[C@@H](NC(=O)[C@H](CC(C)C)NC(=O)[C@@H](N)C(C)C)[C@@H](C)O)C(=O)N[C@@H](CCC(=O)O)C(=O)N1CCC[C@H]1C(=O)N[C@@H](CC(N)=O)C(=O)N[C@@H](Cc1c[nH]c2ccccc12)C(=O)N[C@@H](C)C(=O)N[C@@H](CO)C(=O)O [NS3 57-71] |  | 5.43 | 3.76 |
| CC[C@H](C)[C@H](NC(=O)[C@@H]1CCCN1C(=O)CNC(=O)[C@H](C)NC(=O)[C@H](CC(C)C)NC(=O)[C@H](CO)NC(=O)[C@H](CCCCN)NC(=O)[C@@H]1CCCN1C(=O)[C@@H](NC(=O)[C@@H](NC(=O)[C@H](CCSC)NC(=O)[C@H](CC(=O)O)NC(=O)[C@H](CO)NC(=O)[C@H](CCC(=O)O)NC(=O)[C@@H](N)CC(C)C)[C@@H](C)CC)[C@@H](C)CC)C(=O)O [NS1 237-251] |  | 2.71 | 14.8 |
| CC[C@H](C)[C@H](NC(=O)[C@@H]1CCCN1C(=O)[C@H](CO)NC(=O)CNC(=O)[C@H](CO)NC(=O)[C@@H](NC(=O)CNC(=O)[C@@H]1CCCN1C(=O)[C@H](CCCCN)NC(=O)[C@H](Cc1ccccc1)NC(=O)[C@H](CC(=O)O)NC(=O)[C@H](CC(C)C)NC(=O)[C@H](C)NC(=O)[C@@H](NC(=O)[C@H](C)N)[C@@H](C)CC)[C@@H](C)O)C(=O)O [NS3 125-139] |  | 9.22 | 4.35 |
| CC[C@H](C)[C@H](NC(=O)[C@@H](NC(=O)[C@H](Cc1ccccc1)NC(=O)[C@H](CO)NC(=O)[C@H](CO)NC(=O)[C@H](CC(N)=O)NC(=O)[C@H](CCC(N)=O)NC(=O)[C@@H](NC(=O)[C@H](CCC(=O)O)NC(=O)[C@H](C)NC(=O)[C@@H](NC(=O)[C@@H](NC(=O)[C@@H](NC(=O)[C@H](CCCCN)NC(=O)[C@H](C)N)[C@@H](C)CC)C(C)C)[C@@H](C)O)[C@@H](C)O)[C@@H](C)CC)C(=O)O [NS1 121-135] |  | 1.24 | 9.46 |
